Assay results as given in patent publication US12303556B2, “Peptides for treatment and prevention of diabetes and associated disorders” (UNIVERSITE DE STRASBOURG, priority 2018, dated 2025).
No end group written: not given here.

How the values were obtained:
[1] = test system: DIO glucose intolerant male mice; assay: Glucose tolerance test (ipGTT) in DIO glucose intolerant male mice; assay type: in vivo; details: single dose 25 micrograms per mouse, ipGTT at day 6, high fat/high glucose diet
Procedure: (FIG. 5A) Glucose tolerance: Mice were injected with either vehicle (saline solution), or vehicle+PATAD 417 or vehicle+ADPIF (CPC peptide A-MRO) at day 0. 6 days later (D6) the mice were fasted for 4 hours and at 0 minute received a […] glucose injection to perform the ipGTT. Glucose levels were measured from tail blood every 30 minutes. Besides the control mice which were fed on chow diet (CTL Chow diet), all the other mice were fed on a high fat/high glucose diet.
Mice were injected with a single dose (25 micrograms per mouse) of either scramble peptide or PATAD or ADPIF/PATAS. These are results obtained from series of glucose tolerance test (ipGTT) in DIO glucose intolerant male mice (FIGS. 5A and B).
At day 0: all mice were fasted for 4 hours in the morning. At 1:00 p.m., control mice received one injection of (body weight in grams)×10 […] of 22% glucose solution ([…] injection). Treated mice were injected with either 25 ug (2.5 uL of mother solution) of tested peptide dissolved in (body weight in grams)×10 of the 22% glucose solution. Blood glucose levels were measured from tail vein blood at every 30 minutes intervals and plotted to determine the effect of the different treatments on the area under the curve.

[2] = test system: PKC; assay: PKC kinase activity in human adipocytes; assay type: cell-based; details: for PKC kinase activity at 25 μg peptide per well: 25 μg per well, 30 minutes, positive control insulin
Procedure: FIG. 1. PKC kinase activity in human adipocytes induced by peptides from alpha PKC. Primary human adipocytes were cultured overnight without insulin and on the next day, the different conditions were used with for each peptide 25 μg of peptide ECTMVEKKVLALL (SEQ ID NO: 50) or 25 ug of peptide SVEWWAYGLLYEMLA (SEQ ID NO: 51) was added to each well and incubated for 30 minutes prior to measuring the PKC activity. Vehicle which is saline solution was the negative control and the positive control used was insulin at […].
FIG. 3. PATAS in vitro dose response to trigger PKC activity in the human adipocytes. PATAS in vitro dose response to trigger PKC activity in the human adipocytes after a 30 minutes incubation of human primary adipocyte with PATAS added to the culture medium. n=5 per group and PATAS quantities are expressed as μg per well.
Two other peptides from PKC alpha, namely ECTMVEKKVLALL (SEQ ID NO: 50) and SVEWWAYGLLYEMLA (SEQ ID NO: 51) have also been tested for their effect on PKC kinase activity.
For PKC kinase activity tests, we used ready to use mature primary human adipocytes originating from omental adipose tissue were purchased from Zenbio in either a 96-well or a 6-well plate format (Catalog #: OA-1096-3 or OA-1006-3). The PKC kinase activity Assay kit (Catalog #: 139437) and procedures were used according to manufacturer's protocol.

[3] = test system: primary human mature adipocytes; assay: Glucose uptake assay in human mature adipocytes (2-DG, Abcam kit); assay type: cell-based; details: 30 minutes with 2-DG, without insulin, 2.5 μL of peptide at 10 μg/μL in 200 μL; N=8; compared with insulin
Procedure: FIG. 4: Glucose uptake in human primary mature adipocyte. N=8 per group.
Human primary preadipocyte were cultured in a 96-well plate and differentiated in mature human adipocytes. After 3 weeks of culture post adipogenesis, the adipocytes were incubated in culture medium without insulin for 2 hours. Following these 2 hours of insulin fasting, the media were changed back wither either medium without insulin (−INS) or medium with insulin (+INS) or medium with ADPIF (PATAS) for 30 minutes together with 2-DG, a glucose analogue used to determine glucose uptake in the Abcam kit. Following the manufacturer's protocol, we then measured the glucose uptake in 8 wells per condition and calculated the mean that was then plotted in the histogram with the standard error of the mean for the error bars shown in […] FIG. 4.
Human white visceral preadipocytes (Catalog #: C-12732; PromoCell) were purchased. The preadipocytes were seeded according to manufacturer's protocol and cultured in the Preadipocyte growth medium (Catalog #: C-27410; PromoCell) to confluence. Adipogenic differentiation was induced by changing the medium to the Preadipocyte Differentiation Medium (Catalog #: C-27436; PromoCell) for 2 days. After the differentiation phase, the medium was finally changed to the Adipocyte Nutrition medium (Catalog #: C-27438; PromoCell). […]

[4] = test system: glycated albumin; assay: Glycated albumin in plasma in the STAM mice model (ELISA); assay type: in vivo; details: 5 weekly subcutaneous injections of 25 ug per mouse, 6 mice per group, vs vehicle
Source text: FIG. 8. Effect of ADPIF on glycated albumin in plasma in the STAM mice model. Plasma of the treated mice from the Japanese STAMT model were used to measure circulating glycated albumin levels using a commercially available kit. The results are presented in this figure as the mean value of 6 mice per group presented with the standard error of the mean for the error bars.
Glycated albumin is a well-recognized and robust parameter to determine episodes of hyperglycemia in vivo. We therefore used the plasma from the STAMT mice that were treated for 5 weeks with weekly ADPIF/PATAS's injections at 25 ug each compared to control groups which were injected with saline.
For the non-obese STAM mouse model study, C57BL/6 mice (14-day-pregnant female) were obtained from Japan SLC, Inc. (Japan). All animals used in the study were housed and cared for in accordance with the Japanese Pharmacological Society Guidelines for Animal Use. The animals were maintained in a SPF facility under controlled conditions of temperature (23±2° C.), humidity (45±10%), lighting (12-hour artificial light and dark cycles; light from 8:00 to 20:00) and air exchange. The animals were housed in TPX cages (CLEA Japan) with a maximum of 3 mice per cage. Sterilized Paper-Clean (Japan SLC) was used for bedding and replaced once a week. […]

[5] = test system: db/db male mice; assay: ipGTT in db/db (BKS) diabetic mice; assay type: in vivo; details: 2 mg/kg BW subcutaneous, ipGTT day 4 post-injection, 6-week-old db/db mice on chow diet
Procedure: (FIG. 6A) Blood glucose excursion curve during ipGTT on day 4 post-PATAS subcutaneous injection (2 mg/kg BW PATAS dosing) in 6-week-old db/db male mice on chow diet Post 8 hours fasting. Glucose bolus (2 g/kg body weight) administered […] at T=Omin and the associated AUC histogram (n=10 mice per group Significance was set at *p-value≤0.05, **p-value≤0.01).
PATAS/ADPIF's activity was tested in db/db on the BKS genetic background, diabetic mouse models. […] The mice received a weekly injection of PATAS/ADPIF or vehicle for another 3 weeks followed by another 4 weeks without any treatment while being constantly monitored. […]
At day 0: all mice were fasted for 4 hours in the morning. […] Blood glucose levels were measured from tail vein blood at every 30 minutes intervals and plotted to determine the effect of the different treatments on the area under the curve.

[6] = test system: Bbs10-/- mice; assay: ipGTT in Bbs10-/- mice (Bardet Biedl syndrome model); assay type: in vivo; details: 2 mg/kg body weight subcutaneous, 3 days post-injection
Source text: FIGS. 7A-7B. PATAS is effective in improving glucose intolerance in a genetic mouse model for a rare disease associated with obesity and type 2 diabetes, the Bardet Biedl syndrome (BBS). BBS mice were on chow diet fed ad libitum. n=4 mice with a cross-over experimental set-up with ipGTT performed before injection and 3 days post-injection. Knockout mouse model for the BBS10 gene (Bbs10^−/−) were generated and spontaneously became obese as described in literature.
Knockout mouse model for the BBS10 gene (Bbs10^−/−) were generated and spontaneously became obese as described in literature.
For the obese mouse model with overt type 2 diabetes mouse, the BKS (D)-Leprdb/J, Stock No: 010803 (were purchased from the Jax Labs. Bbs10 knockout mice were generated by Institute Mouse Clinic (ICS) in Strasbourg and have been previously described in literature. All mice were on a C57/BL6 genetic background. All animals were housed in a temperature and humidity-controlled facility, with a 12 h-light/12 h-dark cycle. The BKS (D)-Leprdb/J mice were fed with chow diet (LM-485; Harlan Teklad Premier Laboratory Diets) whereas the Bbs knockout mice were fed with […] and tap water ad libitum. For ipGTT and ipITT, mice were fasted for 6 hours before start of experiment. Insulin 0.75 U/kg was injected i.v. via the tail vein. Blood glucose and samples were collected from the tail. […]

[7] = test system: FATP2; assay: FATP isoform expression in subcutaneous white adipose tissue of db/db mice; assay type: in vivo; details: 4 weekly PATAS injections then 4 weeks without treatment, n=6, GAPDH reference, vs control mice
Procedure: (FIG. 6B) Following 4 weekly PATAS injections, and another 4 weeks without treatment, db/db mice sWAT. Normalized expression levels for the six FATP isoforms (FATP 1-6) in subcutaneous white adipose tissue (sWAT) were determined. n=6 per group with GAPDH as reference gene.
PATAS/ADPIF's activity was tested in db/db on the BKS genetic background, diabetic mouse models. […] The mice received a weekly injection of PATAS/ADPIF or vehicle for another 3 weeks followed by another 4 weeks without any treatment while being constantly monitored.
Total RNA was prepared from the different tissues and cells using a RiboPure™ kit (Catalog #: AM1924; Ambion) followed by a DNAse treatment with the TURBO DNA-free™ (Catalog #: AM 1907; Ambion). RNA integrity was assessed by gel electrophoresis and RNA concentration by Eppendorf Biophotometer Plus with the Hellma® Tray Cell (Catalog #: 105.810-uvs; Hellma). Reverse transcription of 1 μg total RNA to cDNA was performed using the BioRadiScript™ cDNA synthesis kit (Catalog #: 170-8891; BioRad). Real-time quantitative polymerase chain reaction amplification was performed in a BioRad CFX96 TM Real-Time System using the iQ™ SYBR® Green Supermix (Catalog #: 170-8886; BioRAd) and primer sets optimized for tested targets for SYBR Green-based real-time PCR for the real-time PCR. […]

## VE CTM-[2-(4-pentenyl) alanine]-EK RVL A-[2-(4-pentenyl) alanine]-L DKP PFL TQL HS [PATAD, reference compound]
[1]
  area under the curve (AUC) of glucose tolerance test: drop in the AUC

## ECTMVEKKVLALL (hydrocarbon staple; segment of kinase domain of alphaPKC) [Peptide from PKC alpha with M and A carrying the stapling]
[2]
  PKC kinase activity at 25 μg peptide per well: able to increase PKC kinase activity

## SVEWWAYGLLYEMLA (staple (positions not given here); not fully specified; also: hydrocarbon staple, positions not given here) [Peptide from PKC alpha with A and M carrying the stapling]
[2]
  PKC kinase activity at 25 μg peptide per well: able to increase PKC kinase activity

## VECTTREKEVLASLDKAAFLTQLHS (staple (positions not given here); not fully specified (bridges); also: hydrocarbon staple via alkenyl Arg and Ser, positions not given here) [ADPIF/PATAS, Stapled peptide wherein R and S carry the stapling, being preferably 2-(7-octenyl)arginine and 2-(4-pentenyl)serine]
[3]
  glucose uptake (glucose absorption): as effective as Insulin
[4]
  glycated albumin levels in plasma: significant drop in glycated albumin
[4]; listed as ADPIF
  glycated albumin levels in plasma: significant drop in glycated albumin levels
[2]; 30 minutes incubation, PATAS quantities in μg per well, n=5
  PKC activity, dose response: increasing PKC activity with increasing ADPIF/PATAS quantity
[5]
  glucose intolerance / hyperglycemia (ipGTT): able to prevent hyperglycemia
[5]; listed as PATAS/ADPIF
  glucose intolerance / hyperglycemia (ipGTT): significant improvement of the glucose intolerance
[1]
  area under the curve (AUC) of glucose tolerance test: more effective than PATAD to reduce the AUC
  glucose intolerance (ipGTT): more active than PATAD peptide
[6]
  glucose tolerance (ipGTT): improved glucose tolerance
[6]; before injection ~30000, n=4
  ipGTT area under the curve (AUC): ~16000 mg·min/dL
[7]
  Fatp2 expression levels in adipose tissue (sWAT): able to decrease the expression of FATP2
[7]; listed as PATAS
  Fatp2 expression levels in adipose tissue (sWAT): specific and significant drop in Fatp2 expression levels
